# Literature values, collected in patent publication US20050271673A1, “Trifunctional reagent for conjugation to a biomolecule” (priority 1998, published 2005).
# Assays:
# avidin = avidin (Gallus gallus, UniProt P02701); settings: association constant; Green 1990, 1975
# streptavidin = streptavidin (Streptomyces avidinii, UniProt P22629); settings: association constant; Green 1990, 1975
# streptavidin, sequence (P22629 25-183, species assumed): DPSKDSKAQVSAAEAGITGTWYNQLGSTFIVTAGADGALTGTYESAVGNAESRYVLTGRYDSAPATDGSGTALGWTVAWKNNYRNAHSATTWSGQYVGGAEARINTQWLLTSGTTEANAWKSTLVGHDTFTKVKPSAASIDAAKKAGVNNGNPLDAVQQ
# avidin, sequence (P02701 25-152, species assumed): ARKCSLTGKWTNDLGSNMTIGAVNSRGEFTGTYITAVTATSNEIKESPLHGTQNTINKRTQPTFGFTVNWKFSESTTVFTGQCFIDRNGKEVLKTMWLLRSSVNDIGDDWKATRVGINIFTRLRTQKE
compound,measurement,setting,value
O=C(O)CCCC[C@@H]1SC[C@@H]2NC(=O)N[C@@H]21 [biotin],K (binding constant of biotin with avidin),avidin,1013 to 1015 M⁻¹
same,K (binding constant of biotin with streptavidin),streptavidin,1013 to 1015 M⁻¹
